Data taken from patent US8216551B2, “In vivo system to monitor tissue responses in birds” (The Board of Trustees of the University of Arkansas, priority 2008, dated 2012).

What was measured:
feather pulp [1] = experiment: Local tissue response to LPS or PHA injected into feathers and wing webs; assay type: in vivo, chicken; settings: for composition of the infiltrate / MHC class II expression: 6 hours post-injection; for MHC class II expression: immunohistochemistry; for leukocyte infiltration: in vivo
feather pulp [2] = experiment: Local tissue response to injection of IFN-γ into growing feathers; assay type: in vivo, chicken; settings: for mean score of extent of mononuclear infiltration: score 1=no infiltration

Molecule	composition of the infiltrate (feather pulp [1])	MHC class II expression (feather pulp [1])	leukocyte infiltration (feather pulp [1])	mean score of extent of mononuclear infiltration (feather pulp [2]; 6 h post-injection, 5=extensive infiltration throughout the entire pulp)	mean score of extent of mononuclear infiltration (feather pulp [2]; 1 day post-injection, 5=extensive)	mean score of extent of mononuclear infiltration (feather pulp [2]; 2 days post-injection, 5=extensive)	mean score of extent of mononuclear infiltration (feather pulp [2]; 3 days post-injection, 5=extensive)	histological analysis, cell infiltration into the feather pulp (feather pulp [2]; by 6 h, preliminary)
lipopolysaccharide [LPS]	primarily of heterophils	noticeable increase	extensive leukocyte infiltration	–	–	–	–	–
phytohaemagglutinin [PHA]	heterophils and mononuclear cells	substantially increased	extensive leukocyte infiltration	–	–	–	–	–
IFN-γ: recombinant chicken IFN-γ (protein, UniProt P49708 20-164, looked up) Interferon gamma: HTASSLNLVQLQDDIDKLKADFNSSHSDVADGGPIIVEKLKNWTERNEKRIILSQIVSMYLEMLENTDKSKPHIKHISEELYTLKNNLPDGVKKVKDIMDLAKLPMNDLRIQRKAANELFSILQKLVDPPSFKRKRSQSQRRCNC	–	–	–	1.6±0.1	4.0±0.5	3.2±0.6	3.0±0.9	mononuclear cell infiltration into the feather pulp, but no granulocytes
